The values that follow come from patent US12187709B2 (Genentech, Inc., priority 2021, dated 2025).

Assay [1] has as its target Cbl-b (Homo sapiens (Human), UniProt Q13191). As to the kind of experiment: Cbl-b LCK Ub TR-FRET assay (Cbl-b Lck HTRF). Format: biochemical. As to conditions: for IC50: Cbl-b LCK Ub TR-FRET; for fold-selectivity (Cbl-b over C-cbl): ratio C-cbl Lck HTRF IC50 / Cbl-b Lck HTRF IC50. The procedure, abridged: (§1)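 Signal is read once the detection mix has stood 20 min at ambient temperature. Curves are anchored by DMSO as maximum and by omission of LCK as minimum.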
Background: In TR-FRET formats the signal depends on donor and acceptor labels being close together.

Assay [2] addresses c-Cbl (Homo sapiens (Human), UniProt P22681). Description: C-Cbl LCK Ub TR-FRET assay (C-cbl Lck HTRF). It counts as biochemical. The procedure, abridged: as §1
In assay [3] the target is Human Cbl-b (residues 40-426) (Homo sapiens (Human), UniProt Q13191). As to the kind of experiment: Cbl-b SPR assay. It counts as binding. As to conditions: for Fold of selectivity: C-cbl SPR Kd vs Cbl-b SPR Kd; for Kd: SPR, 20° C. The method in brief: (§2)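 Protein captured at 1300-1500 RU; compounds run as 6-point 2-fold series in multi-cycle kinetics (60 s contact, 40 μl/min, 120-1200 s dissociation), fitted 1:1. For slow binders, kd came from chaser-compound occupancy over time, fixed in a single-cycle fit (5 concentrations, top 500 nM).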
Chain of Human Cbl-b (residues 40-426) (Q13191 40-426): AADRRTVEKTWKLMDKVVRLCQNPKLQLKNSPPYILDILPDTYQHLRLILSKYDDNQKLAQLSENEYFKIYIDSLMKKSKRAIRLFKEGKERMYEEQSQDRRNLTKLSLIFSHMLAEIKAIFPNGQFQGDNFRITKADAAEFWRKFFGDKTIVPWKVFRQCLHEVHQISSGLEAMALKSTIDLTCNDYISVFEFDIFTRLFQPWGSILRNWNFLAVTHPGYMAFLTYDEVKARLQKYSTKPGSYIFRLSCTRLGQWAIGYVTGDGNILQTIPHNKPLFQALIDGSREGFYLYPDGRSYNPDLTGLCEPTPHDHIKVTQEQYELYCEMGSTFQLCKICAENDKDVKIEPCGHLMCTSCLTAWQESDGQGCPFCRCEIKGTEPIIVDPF
On the technique in general: Surface plasmon resonance follows binding to a sensor surface in real time, without labels.

For assay [4], the target named is c-Cbl (residues 47-435) (Homo sapiens (Human), UniProt P22681). As to the kind of experiment: c-Cbl SPR assay. Format: binding. The conditions noted are these: 20° C. The procedure, abridged:
as §2

As usually defined, the IC50 is the concentration at which inhibition is half-maximal. Read a high IC50 as lower potency. Broadly, the Kd is the constant that tells how readily two partners part at equilibrium.

Chain of c-Cbl (P22681 47-435): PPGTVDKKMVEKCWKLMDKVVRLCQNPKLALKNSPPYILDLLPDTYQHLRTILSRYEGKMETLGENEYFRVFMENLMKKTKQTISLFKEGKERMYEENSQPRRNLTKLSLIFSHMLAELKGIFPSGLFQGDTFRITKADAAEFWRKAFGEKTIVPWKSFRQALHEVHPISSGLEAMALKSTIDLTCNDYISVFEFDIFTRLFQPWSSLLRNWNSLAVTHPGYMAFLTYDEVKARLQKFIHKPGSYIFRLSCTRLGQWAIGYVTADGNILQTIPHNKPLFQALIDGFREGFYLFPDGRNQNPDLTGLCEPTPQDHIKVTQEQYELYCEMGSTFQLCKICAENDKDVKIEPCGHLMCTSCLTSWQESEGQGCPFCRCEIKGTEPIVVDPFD
Chain of c-Cbl (residues 47-435) (P22681 47-435): as above
Chain of Cbl-b (Q13191 40-426): as the sequence (Q13191 40-426) above

For the compound `CC(C)[C@H]1CN(C)CCN1Cc1cc2c(c(C(F)F)c1)CN(c1cccc(C3(c4nncn4C)CC4(COC4)C3)c1)C2=O.O=CO.O=CO` [Compound 198, (S)-4-(difluoromethyl)-6-((2-isopropyl-4-methylpiperazin-1-yl)methyl)-2-(3-(6-(4-methyl-4H-1,2,4-triazol-3-yl)-2-oxaspiro[3.3]heptan-6-yl)phenyl)isoindolin-1-one formate], in assay [1], it took 46 nM to reach half-maximal inhibition (IC50) and the “fold-selectivity (Cbl-b over C-cbl)” value amounted to 4.4x. The compound further showed an IC50 in assay [2] of 200 nM. Also, in assay [3], the Fold of selectivity is on record as 5.1× and the Kd worked out at 29 nM. The compound also gave a Kd in assay [4] of 120 nM.
Regarding `COc1cc(N2Cc3c(cc(CNC4(C)CCC4)cc3C(F)(F)F)C2=O)cc([C@]2(c3nncn3C)C[C@@H](OC)C2)c1` [Compound 200, 2-(3-methoxy-5-((1s,3s)-3-methoxy-1-(4-methyl-4H-1,2,4-triazol-3-yl)cyclobutyl)phenyl)-6-(((1-methylcyclobutyl)amino)methyl)-4-(trifluoromethyl)isoindolin-1-one], in assay [1], half-maximal inhibition (IC50) was put at 24 nM and the “fold-selectivity (Cbl-b over C-cbl)” value is reported as 1.7x. For the same compound, the midpoint of inhibition in assay [2], the IC50, lay at 40 nM. In assay [3], this compound showed a Fold of selectivity of 2.4× and a Kd of 8 nM. This compound also registered a Kd in assay [4] of 19 nM.
Consider `COc1cc(N2Cc3c(cc(CNC4(C)CCC4)cc3C(F)(F)F)C2=O)cc([C@]2(c3nncn3C)C[C@H](OC)C2)c1` [Compound 201, 2-(3-methoxy-5-((1r,3r)-3-methoxy-1-(4-methyl-4H-1,2,4-triazol-3-yl)cyclobutyl)phenyl)-6-(((1-methylcyclobutyl)amino)methyl)-4-(trifluoromethyl)isoindolin-1-one], for which the half-inhibitory concentration (IC50) in assay [1] came to 12 nM; in assay [2], 18 nM. Moreover, in assay [1], the “fold-selectivity (Cbl-b over C-cbl)” value was determined as 1.5x. In assay [3], this compound showed a Fold of selectivity of 3.6×. For the same compound, the Kd was found to be 3 nM in assay [3] and 11 nM in assay [4].
As for `CCOc1cc(N2Cc3c(cc(CNC4(C)CCC4)cc3C(F)(F)F)C2=O)cc([C@]2(c3nncn3C)C[C@H](OC)C2)c1` [Compound 202, 2-(3-ethoxy-5-((1r,3r)-3-methoxy-1-(4-methyl-4H-1,2,4-triazol-3-yl)cyclobutyl)phenyl)-6-(((1-methylcyclobutyl)amino)methyl)-4-(trifluoromethyl)isoindolin-1-one], in assay [1], the concentration for half-maximal inhibition (IC50) amounted to 11 nM and the “fold-selectivity (Cbl-b over C-cbl)” value came to 1.8x. For the same compound, it took 21 nM to reach half-maximal inhibition in assay [2] (IC50). In assay [3], this compound showed a Fold of selectivity of 5.2× and an equilibrium dissociation constant (Kd) of 3.3 nM. This compound also had a Kd in assay [4] of 17 nM.
Regarding `CCOc1cc(N2Cc3c(cc(CNC4(C)CCC4)cc3C(F)(F)F)C2=O)cc([C@]2(c3nncn3C)C[C@@H](OC)C2)c1` [Compound 203, 2-(3-ethoxy-5-((1s,3s)-3-methoxy-1-(4-methyl-4H-1,2,4-triazol-3-yl)cyclobutyl)phenyl)-6-(((1-methylcyclobutyl)amino)methyl)-4-(trifluoromethyl)isoindolin-1-one], in assay [1], the IC50 came out at 18 nM and the “fold-selectivity (Cbl-b over C-cbl)” value turned out to be 2.1x. Also, in assay [2], the 50% inhibitory concentration (IC50) amounted to 38 nM. Also, in assay [3], the Fold of selectivity is listed as 3.3× and the dissociation constant (Kd) turned out to be 6.4 nM. Moreover, binding in assay [4] was put at a Kd of 21 nM.
Take `C=CCOc1cc(N2Cc3c(cc(CNC4(C)CCC4)cc3C(F)(F)F)C2=O)cc([C@]2(c3nncn3C)C[C@@H](OC)C2)c1` [Compound 205, 2-(3-(allyloxy)-5-((1s,3s)-3-methoxy-1-(4-methyl-4H-1,2,4-triazol-3-yl)cyclobutyl)phenyl)-6-(((1-methylcyclobutyl)amino)methyl)-4-(trifluoromethyl)isoindolin-1-one]: the concentration for half-maximal inhibition (IC50) in assay [1] worked out at 63 nM; in assay [2], 240 nM. For the same compound, the “fold-selectivity (Cbl-b over C-cbl)” value in assay [1] is given as 3.8x. Also, in assay [3], the Fold of selectivity is 2.8×. In addition, the values for the Kd in assay [3] and in assay [4] were 46 nM and 130 nM, respectively.
As to `CO[C@H]1C[C@@](c2cc(OC(C)C)cc(N3Cc4c(cc(CNC5(C)CCC5)cc4C(F)(F)F)C3=O)c2)(c2nncn2C)C1` [Compound 206, 2-(3-isopropoxy-5-((1s,3s)-3-methoxy-1-(4-mehtyl-4H-1,2,4-triazol-3-yl)cyclobutyl)phenyl)-6-(((1-methylcyclobutyl)amino)methyl)-4-(trifluoromethyl)isoindolin-1-one], in assay [1], the IC50 worked out at 34 nM and the “fold-selectivity (Cbl-b over C-cbl)” value was found to be 2.4x. For the same compound, half-maximal inhibition in assay [2] (IC50) required 82 nM. In assay [3], the Fold of selectivity was 2.4× and binding was put at a Kd of 12 nM. The same compound came in with a Kd in assay [4] of 30 nM.
Take `CO[C@H]1C[C@](c2cc(OC(C)C)cc(N3Cc4c(cc(CNC5(C)CCC5)cc4C(F)(F)F)C3=O)c2)(c2nncn2C)C1` [Compound 207, 2-(3-isopropoxy-5-((1r,3r)-3-methoxy-1-(4-methyl-4H-1,2,4-triazol-3-yl)cyclobutyl)phenyl)-6-(((1-methylcyclobutyl)amino)methyl)-4-(trifluoromethyl)isoindolin-1-one]: the half-maximal inhibitory concentration (IC50) was 24 nM in assay [1] and 52 nM in assay [2]. Moreover, in assay [1], the “fold-selectivity (Cbl-b over C-cbl)” value came out at 2.2x. For the same compound, the Fold of selectivity in assay [3] is listed as 2.6×. Besides, the dissociation constant (Kd) was 9.3 nM in assay [3] and 24 nM in assay [4].
For the compound `CO[C@H]1C[C@@](c2cc(OC3CCCC3)cc(N3Cc4c(cc(CNC5(C)CCC5)cc4C(F)(F)F)C3=O)c2)(c2nncn2C)C1` [Compound 208, 2-(3-(cyclopentyloxy)-5-((1s,3s)-3-methoxy-1-(4-methyl-4H-1,2,4-triazol-3-yl)cyclobutyl)phenyl)-6-(((1-methylcyclobutyl)amino)methyl)-4-(trifluoromethyl)isoindolin-1-one], in assay [1], 450 nM corresponded to half-maximal inhibition (IC50) and the “fold-selectivity (Cbl-b over C-cbl)” value is recorded as 4.8x. This compound also returned a 50% inhibitory concentration (IC50) in assay [2] of 2200 nM. In assay [3], the Fold of selectivity came out at 6.0× and the Kd worked out at 250 nM. The dissociation constant (Kd) in assay [4] was 1500 nM.
As to `CO[C@H]1C[C@](c2cc(NC3CCCC3)cc(N3Cc4c(cc(CNC5(C)CCC5)cc4C(F)(F)F)C3=O)c2)(c2nncn2C)C1` [Compound 209, 2-(3-(cyclopentylamino)-5-((1r,3r)-3-methoxy-1-(4-methyl-4H-1,2,4-triazol-3-yl)cyclobutyl)phenyl)-6-(((1-methylcyclobutyl)amino)methyl)-4-(trifluoromethyl)isoindolin-1-one], the IC50 in assay [1] was found to be 44 nM; in assay [2], 320 nM. For the same compound, in assay [1], the “fold-selectivity (Cbl-b over C-cbl)” value stood at 7.2x. The compound also showed a Fold of selectivity in assay [3] of 12×. Moreover, the equilibrium dissociation constant (Kd) in assay [3] stood at 17 nM; in assay [4], 200 nM.
Turning to `CCNc1cc(N2Cc3c(cc(CNC4(C)CCC4)cc3C(F)(F)F)C2=O)cc([C@]2(c3nncn3C)C[C@H](OC)C2)c1` [Compound 210, 2-(3-(ethylamino)-5-((1r,3r)-3-methoxy-1-(4-methyl-4H-1,2,4-triazol-3-yl)cyclobutyl)phenyl)-6-(((1-methylcyclobutyl)amino)methyl)-4-(trifluoromethyl)isoindolin-1-one], in assay [1], the IC50 stood at 9 nM and the “fold-selectivity (Cbl-b over C-cbl)” value is listed as 1.3x. The same compound had an IC50 in assay [2] of 12 nM. In assay [3], the Fold of selectivity is 4.7× and the affinity, expressed as Kd, was 1.5 nM. In assay [4], this compound came in with a dissociation constant (Kd) of 6.7 nM.
